Experimental data as given in patent US7868206B2, “Trihalomethionine derivative and pharmaceutical product containing the same” (National University Corporation, Gunma University, priority 2005, dated 2011).
Several values for one entry are separate records, joined by “and”; a condition that tells them apart may be missing. Equal entries are not always repeated. Entries after “also recorded” stand apart in the source; their conditions may differ. Structures can show the parent of a compound that is named as a salt. Where two headings read alike, the source gives them in different places.

How the values were obtained:
[1] = test system: Entamoeba histolytica HM1: IMSS c16 strain; experiment: Inhibition of proliferation of Entamoeba histolytica, anaerobic culture in 96-well plate, 72 hours, WST-1 (Example 2); type: cell-based; conditions: for IC50: Entamoeba histolytica, 0.25 to 20 μM, anaerobic culture, read-out: IC50 (concentration required to inhibit proliferation by 50% compared to untreated controls)
Experimental: (§1) The Entamoeba histolytica HM1: IMSS c16 strain was cultured for 18 hours in a medium containing each compound at a concentration of 80 μM. […] The cell number was measured by determining the number of living cells of Entamoeba histolytica using WST-1 (Roche Diagnostics K.K.).
The killing effects of each of the compounds: trifluoromethionine (TFM), trifluoromethionine amide (WY200), SK254, SK258, WY241, WY244, WY252, K010, SK276, SK316, SK336, and SK337 on Entamoeba histolytica HM1: IMSS c16 strain were examined. The Entamoeba histolytica HM1: IMSS c16 strain was anaerobically cultured in a medium containing each compound at a concentration of 0.25 to 20 μM in a 96-well plate: The number of cells after 72 hours was determined in the same way as Example 1. […] It was found from the results that many compounds including SK337 killed the Entamoeba histolytica protozoan at concentrations more than 10-fold lower than the concentration of trifluoromethionine.

[2] = test system: Entamoeba histolytica HM1: IMSS c16 strain; conditions: for Total liver weight / Liver non-abscess portions / Liver abscess portions: individual hamsters A, B, C; for Liver abscess portions: dash = no abscess (total = non-abscess)
Experimental: Next, the compound of the present invention was evaluated in an animal infection experiment using a hamster liver abscess model. First, an Entamoeba histolytica HM1: IMSS c16 strain was injected to 3-week-old female hamsters to induce liver abscesses. […] In Table 2, A, B, and C in the respective groups show individual hamsters used. Many other compounds (trifluoromethionine, SK254, SK258, WY241, WY244, and WY252) were evaluated in animal infection experiments in the same way as Example 3.

[3] = test system: Entamoeba histolytica HM1: IMSS c16 strain; experiment: Killing effect on Entamoeba histolytica, living cell number by WST-1 after 18 hours (Example 1, FIG. 1); type: cell-based; conditions: 80 μM, 18 hours culture
Experimental: as §1, with “The killing effect of each of the compounds: trifluoromethionine (TFM), trifluoromethionine amide (WY200), metronidazole (known anti-amoeba drug) on an Entamoeba histolytica HM1: IMSS c16 strain was examined. The Entamoeba” for “The Entamoeba”

[4] = intraperitoneal 3 μmol (1.1 to 1.3 mg) per hamster (body weight 28 to 37 g), hydrochloride
[5] = intraperitoneal 3 μmol per hamster, hydrochloride
[6] = intraperitoneal 3 μmol (1.1 to 1.3 mg) per hamster (body weight 28 to 37 g)
[7] = intraperitoneal 3 μmol per hamster

IC50 [1] [µM]	Structure (SMILES)	Total liver weight [2, 6]	Liver non-abscess portions [2, 7]	also measured
2.5	Cl.N[C@@H](CCSC(F)(F)F)C(=O)NCc1ccccc1 [SK254, (S)-2-amino-N-benzyl-4-(trifluoromethylthio)butanamide hydrochloride]			Total liver weight [2, 4]: A. 2,318 mg; also recorded: B. 2,193 mg; also recorded: C. 2,386 mg; Liver non-abscess portions [2, 5]: 2,318 mg and 2,193 mg and 2,386 mg
13.7	NC(CSC(F)(F)F)C(=O)Nc1ccccc1 (stereo in doubt) [KO10, (S)-2-amino-N-phenyl-3-(trifluoromethylthio)propanamide hydrochloride]			
	NC(=O)[C@@H](N)CCSC(F)(F)F [WY200, trifluoromethionine amide]	A. 3,059 mg; also recorded: B. 1,624 mg	3,059 mg and 1,624 mg	killing effect on Entamoeba histolytica (number of living cells) [3]: more effectively than trifluoromethionine; increase of total weights of the liver (in words) ([2]; intraperitoneal 40 μmol): did not increase the total weights of the liver; liver abscess formation (in words) ([2]; intraperitoneal 40 μmol): caused no liver abscess; Total liver weight ([2]; intraperitoneal 40 μmol, 3-week-old female hamsters): B. 2814 mg; also recorded: A. 2157 mg; Liver non-abscess portions ([2]; intraperitoneal 40 μmol): 2814 mg and 2145 mg
5.5	Cl.N[C@@H](CCSC(F)(F)F)C(=O)Nc1ccc(F)cc1F [WY244, 1-(2,4-difluoro-phenylcarbamoyl)-3-trifluoromethylsulfanyl-propyl-ammonium chloride]	A. 2,575 mg; also recorded: B. 2,181 mg; also recorded: C. 2,570 mg	2,561 mg and 2,181 mg and 2,570 mg	Liver abscess portions [2, 7]: 14 mg
11.8	Cl.N[C@@H](CCSC(F)(F)F)C(=O)Nc1ccc(Br)cc1 [WY241, 1-(4-bromophenylcarbamoyl)-3-trifluoromethylsulfanyl-propyl-ammonium chloride]	A. 2,916 mg; also recorded: B. 2,371 mg; also recorded: C. 2,900 mg	2,916 mg and 2,371 mg and 2,900 mg	
17.2	N[C@@H](CCSC(F)(F)F)C(=O)O [TFM, trifluoromethionine, reference compound]	A. 2,240 mg; also recorded: B. 2,415 mg; also recorded: C. 2,575 mg	2,240 mg and 2,415 mg and 2,575 mg	
1.7	COc1cc(NC(=O)[C@@H](N)CCSC(F)(F)F)cc(OC)c1OC [SK336, (S)-2-amino-N-(3,4,5-trimethoxyphenyl)-4-(trifluoromethylthio)butanamide hydrochloride]			
8.9	N[C@@H](CSC(F)(F)F)C(=O)NCc1ccccc1 [SK316, (R)-2-amino-N-benzyl-3-(trifluoromethylthio)propanamide hydrochloride]			
1.5	COc1ccc(NC(=O)[C@@H](N)CCSC(F)(F)F)cc1OC.Cl [SK337, (S)-2-amino-N-(3,4-dimethoxyphenyl)-4-(trifluoromethylthio)butanamide hydrochloride]			concentration lower than the concentration of trifluoromethionine ([1]; compared with trifluoromethionine): more than 10 fold
2.5	Cl.N[C@@H](CCSC(F)(F)F)C(=O)Nc1ccccc1 [SK258, (S)-2-amino-N-phenyl-4-(trifluoromethylthio)butanamide hydrochloride]			Total liver weight [2, 4]: A. 2,071 mg; also recorded: B. 2,768 mg; also recorded: C. 1,510 mg; Liver non-abscess portions [2, 5]: 2,071 mg and 2,768 mg and 1,510 mg
1.6	COc1cc(NC(=O)[C@@H](N)CCSC(F)(F)F)cc(OC)c1.Cl [WY252, 1-(3,5-dimethoxy-phenylcarbamoyl)-3-trifluoromethylsulfanyl-propylammonium chloride]	A. 2,539 mg; also recorded: B. 3,338 mg; also recorded: C. 2,687 mg	2,1204 mg and 3,338 mg and 2,687 mg	Liver abscess portions [2, 7]: 19 mg
6.8	N[C@@H](CCSC(F)(F)F)C(=O)NC1CCc2ccccc21 (stereo partly drawn) [SK276, (2S)-2-amino-N-(2,3-dihydro-1H-inden-1-yl)-4-(trifluoromethylthio) butanamide hydrochloride]			
